Measured values: patent US20230212239A1, “INHIBITORS OF CBL AUTOINHIBITION AND RELATED METHODS” (THE HOSPITAL FOR SICK CHILDREN, priority 2020, published 2023)

Key:
[1] = biological target: T1, purified recombinant CBL protein containing the TKBD-LHR-RING region (Homo sapiens, UniProt P22681); assay: High-throughput in vitro autoubiquitination assay (modified ELISA-based LifeSensors assay, 384 well), hit validation; type: biochemical; conditions: validation: triplicate wells; confirmed at percent activation cutoff of at least 20% in at least 2 wells
T1 construct: Residues 25-357 and 2-436 of CBL were cloned in frame into pGEX4T-1; GST (N); made in house
T1 sequence (P22681 2-436): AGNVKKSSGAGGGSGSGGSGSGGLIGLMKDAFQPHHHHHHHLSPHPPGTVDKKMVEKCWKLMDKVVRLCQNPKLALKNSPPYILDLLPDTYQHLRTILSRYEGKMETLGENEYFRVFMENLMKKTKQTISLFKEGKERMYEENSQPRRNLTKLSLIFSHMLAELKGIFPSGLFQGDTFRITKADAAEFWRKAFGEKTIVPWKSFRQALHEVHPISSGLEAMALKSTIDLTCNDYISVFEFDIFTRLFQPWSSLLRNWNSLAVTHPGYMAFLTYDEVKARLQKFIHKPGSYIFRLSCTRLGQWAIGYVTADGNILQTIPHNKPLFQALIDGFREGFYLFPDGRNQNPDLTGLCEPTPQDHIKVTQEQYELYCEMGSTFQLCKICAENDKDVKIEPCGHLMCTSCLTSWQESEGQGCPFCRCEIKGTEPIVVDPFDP
Source text: As an approach to identify novel compounds that mimic SLAP2 binding, and thus stimulate CBL E3 ligase activity, an in vitro autoubiquitination assay was developed based on a modification of a commercially available ELISA based assay (LifeSensors, Inc) and adapted to a 384 well high throughput screen (HTS) format (FIG. 13). The assay uses purified recombinant CBL protein containing the TKBD-LHR-RING region and has been optimized using reference controls; phosphorylated CBL, and CBL with or without addition of purified pSLAP2. Reaction components contained in a master mix (E1, E2, free Ub), test compound and purified CBL are free in solution allowing native protein interactions, and polyubiquitin chains are captured by an immobilized ubiquitin binding domain and quantified using an anti-ubiquitin antibody detection method.
Peptidomimetic Screen: A library of 3000 α-helix and β/γ-turn peptidomimetic compounds were screened across 10 384 well plates. A primary screen yielded 14 hits from the OICR Peptidomimetic library (0.47% hit rate). A hit was defined as any compound producing a luminescent signal at least 4 Standard Deviations from the mean of all compounds on the plate (FIG. 14).
Validation experiment: Triplicate wells of hit compounds were randomly dispersed on plates and hits were confirmed based on a percent activation cutoff of at least 20% in at least 2 wells.

CBL TKBD = assay: Co-purification of CBL TKBD with Trx-His-SLAP2/SLAP (Duet co-expression, Ni-NTA, SDS-PAGE); type: binding; conditions: low salt concentration (0.15 M NaCl)
Source text: To validate the CBL/SLAP2 binding interface, a series of mutants in a Duet co-expression vector system was generated for co-purification trials. The SLAP2 sequence was preceded by thioredoxin (Trx) and His-tag fusion proteins to allow co-purification of CBL TKBD that was bound to Trx-His-SLAP2 during the initial affinity chromatography purification step. Surface residues deemed to be important to the CBL/SLAP2 interface, but not CBL function or folding, were mutated to disrupt CBL/SLAP2 binding (FIG. 5C and FIG. 6). In our structure, SLAP2 Gly240 locates close to CBL Met269 and Ala270, such that mutation to a bulky Arg residue (G240R) could cause sterical constraints. Similarly, SLAP2 Leu241 is situated in a hydrophobic cleft composed of CBL Ala223, Trp258, and Val263; mutation to Arg (L241R) was predicted to disturb this binding pocket. Mutation of CBL Ala223 to Arg (A223R) would likewise disrupt this pocket, with CBL/SLAP2 double mutant A223R/L241R predicted to drastically disturb binding through sterical constraints and charge repulsion. (For clarity, CBL mutations herein are indicated in italics, SLAP2 in regular font.) Similarly, single or double mutation of CBL Ser226 or SLAP2 Ser244, whose side chain hydroxyl groups are in close proximity to one another, to charged Glu residues (S226E and S244E) was anticipated to interfere with CBL/SLAP2 binding. Finally, given that SLAP2 binds CBL as an α-helix, mutation of Leu245, located in the center of this α-helix, to proline (L245P) was expected to interrupt the helical structure and thus prevent SLAP2 binding. […] However, double mutation of the CBL/SLAP2 interface (A223R/L241R and S226E/S244E; FIG. 5D, lower panel) was not tolerated, even at low salt concentration.
For co-purification of CBL and SLAP2/SLAP, Duet-His-hSLAP2-CBL 29-261 Δ198-229 and 29-254 Δ198-229, Duet-His-Δlinker-hSLAP2-CBL WT and point mutants, and Duet-His-mSLAP-CBL WT and point mutants were overexpressed in E. coli BL-21 as above or TKB1 competent cells (Stratagene) as per manufacturer’s instructions, and cells harvested as above (except 100 mL of LB, overnight at 16-18° C., and 0.35-0.5 mM IPTG induction). Cell pellets were resuspended in either high or low salt (as for high salt except 25 mM HEPEs pH 7.5, 150 mM NaCl) lysis buffer and purified as above on Ni-NTA agarose (Qiagen) with wash buffer (25 mM HEPEs pH 7.5, 150 mM NaCl, 2% glycerol, 20 mM imidazole, 10 mM βME). Bead slurry was mixed with SDS 2X loading buffer (125 mM Tris pH 6.8, 4% SDS, 20% glycerol, 0.715 M βME, bromophenol blue), boiled, and analyzed by 10 or 12.5% SDS-PAGE, stained with Coomassie blue.

Cc1cc2c(cc1C(=O)NCc1c(F)cccc1Cl)OCCCO2 [Hit 1, N-[(2-chloro-6-fluorophenyl)methyl]-8-methyl-3,4-dihydro-2H-1,5-benzodioxepine-7-carboxamide]
confirmed hit: CBL activation [1]: active

O=S(=O)(Nc1cccc(Br)c1)c1ccc(-c2nnc(C3CCC3)o2)s1 [Hit 2, N-(3-bromophenyl)-5-(5-cyclobutyl-1,3,4-oxadiazol-2-yl)thiophene-2-sulfonamide]
confirmed hit: CBL activation [1]: active

COc1ccc(S(=O)(=O)Nc2cccn3c(C4CCC4)nnc23)cc1Cl [Hit 3, 3-chloro-N-{3-cyclobutyl-[1,2,4]triazolo[4,3-a]pyridin-8-yl}-4-methoxybenzene-1-sulfonamide]
confirmed hit: CBL activation [1]: active

COc1ccc(CNC(=O)C2(C)CCCN(S(=O)(=O)c3cccc(C(F)(F)F)c3)C2)cc1 (stereo not drawn) [Hit 4, N-[(4-methoxyphenyl)methyl]-3-methyl-1-[3-(trifluoromethyl)benzenesulfonyl]piperidine-3-carboxamide]
confirmed hit: CBL activation [1]: active

O=S(=O)(Nc1ccc(Cl)c(C(F)(F)F)c1)c1cc(-c2noc(C3CCC3)n2)cs1 [Hit 5, N-[4-chloro-3-(trifluoromethyl)phenyl]-4-(5-cyclobutyl-1,2,4-oxadiazol-3-yl)thiophene-2-sulfonamide]
confirmed hit: CBL activation [1]: active

O=S(=O)(Nc1ccc(OC(F)(F)F)cc1)c1ccc(-c2cnc(C3CCC3)o2)s1 [Hit 6, 5-(2-cyclobutyl-1,3-oxazol-5-yl)-N-[4-(trifluoromethoxy)phenyl]thiophene-2-sulfonamide]
confirmed hit: CBL activation [1]: active

Cc1ccc(S(=O)(=O)N2C(=O)CCC2C(=O)Nc2cccc3ccccc23)cc1 (stereo not drawn) [Hit 7, 1-(4-methylbenzenesulfonyl)-N-(naphthalen-1-yl)-5-oxopyrrolidine-2-carboxamide]
confirmed hit: CBL activation [1]: active

Cc1ccc(CN2CCN(CC(=O)Nc3ccc(C(C)C)cc3)C(=O)C2=O)cc1 [Hit 8, 2-{4-[(4-methylphenyl)methyl]-2,3-dioxopiperazin-1-yl}-N-[4-(propan-2-yl)phenyl]acetamide]
confirmed hit: CBL activation [1]: active

O=C(NCC(=O)N1CCN(c2ccc(-c3noc(C4CCC4)n3)cc2)CC1)c1ccco1 [Hit 9, N-(2-{4-[4-(5-cyclobutyl-1,2,4-oxadiazol-3-yl)phenyl]piperazin-1-yl}-2-oxoethyl)furan-2-carboxamide]
confirmed hit: CBL activation [1]: active

CC(C)OCCCNC(=O)c1cnc2scc(-c3ccccc3)n2c1=O [Hit 10, 5-oxo-3-phenyl-N-[3-(propan-2-yloxy)propyl]-5H-[1,3]thiazolo[3,2-a]pyrimidine-6-carboxamide]
confirmed hit: CBL activation [1]: active

B1: SLAP2 L241R: SLAP2 interface point mutant Leu241 to Arg (protein)
chain: EAERSKATAVALGSFPAGGPAELSLRLGEPLTIVSEDGDWWTVLSEVSGREYNIPSVHVAKVSHGWLYEGLSREKAEELLLLPGNPGGAFLIRESQTRRGSYSLSVRLSRPASWDRIRHYRIHCLDNGWLYISPRLTFPSLQALVDHYSELADDICCLLKEPCVLQRAGPLPGKDIPLPVTVQRTPLNWKELDSSLLFSEAATGEESLLSEGRRESLSFYISLNDEAVSLDDA
modifications: left off: large carriers; small tags and cut ends
notes: SLAP2 interface point mutant Leu241 to Arg
CBL TKBD co-purification (CBL TKBD): abrogated CBL co-purification

B2: SLAP2 L245P: SLAP2 point mutant Leu245 to proline, expected to interrupt the helix (protein)
chain: EAERSKATAVALGSFPAGGPAELSLRLGEPLTIVSEDGDWWTVLSEVSGREYNIPSVHVAKVSHGWLYEGLSREKAEELLLLPGNPGGAFLIRESQTRRGSYSLSVRLSRPASWDRIRHYRIHCLDNGWLYISPRLTFPSLQALVDHYSELADDICCLLKEPCVLQRAGPLPGKDIPLPVTVQRTPLNWKELDSSLLFSEAATGEESLLSEGLRESPSFYISLNDEAVSLDDA
modifications: left off: large carriers; small tags and cut ends
notes: SLAP2 point mutant Leu245 to proline, expected to interrupt the helix
CBL TKBD co-purification (CBL TKBD): abrogated CBL co-purification

B3: SLAP2 G240R: SLAP2 interface point mutant Gly240 to Arg (protein)
chain: EAERSKATAVALGSFPAGGPAELSLRLGEPLTIVSEDGDWWTVLSEVSGREYNIPSVHVAKVSHGWLYEGLSREKAEELLLLPGNPGGAFLIRESQTRRGSYSLSVRLSRPASWDRIRHYRIHCLDNGWLYISPRLTFPSLQALVDHYSELADDICCLLKEPCVLQRAGPLPGKDIPLPVTVQRTPLNWKELDSSLLFSEAATGEESLLSERLRESLSFYISLNDEAVSLDDA
modifications: left off: large carriers; small tags and cut ends
notes: SLAP2 interface point mutant Gly240 to Arg
CBL TKBD co-purification (CBL TKBD): tolerated

B4: SLAP2 S244E: SLAP2 interface point mutant Ser244 to Glu (protein)
chain: EAERSKATAVALGSFPAGGPAELSLRLGEPLTIVSEDGDWWTVLSEVSGREYNIPSVHVAKVSHGWLYEGLSREKAEELLLLPGNPGGAFLIRESQTRRGSYSLSVRLSRPASWDRIRHYRIHCLDNGWLYISPRLTFPSLQALVDHYSELADDICCLLKEPCVLQRAGPLPGKDIPLPVTVQRTPLNWKELDSSLLFSEAATGEESLLSEGLREELSFYISLNDEAVSLDDA
modifications: left off: large carriers; small tags and cut ends
notes: SLAP2 interface point mutant Ser244 to Glu
CBL TKBD co-purification (CBL TKBD): tolerated

B5: SLAP L241R: mouse SLAP interface mutant analogous to SLAP2 L241R (protein, UniProt Q60898 2-281, looked up, variant L241R)
Src-like-adapter: GNSMKSTSPPSERPLSSSEGLESDFLAVLTDYPSPDISPPIFRRGEKLRVISDEGGWWKAISLSTGRESYIPGICVARVYHGWLFEGLGRDKAEELLQLPDTKIGSFMIRESETKKGFYSLSVRHRQVKHYRIFRLPNNWYYISPRLTFQCLEDLVTHYSEVADGLCCVLTTPCLAQNIPAPTSHPSPCTSPGSPVTLRQKTFDWKRVSRLQEGSEGAENPLRVDESLFSYGLRESIASYRSLTGDDSSSFDRKKKSLSLMYTGSKRKSSFFSAPQYFED
CBL TKBD co-purification (CBL TKBD): abrogated CBL co-purification
